Experimental data reported in the NIST ThermoML archive (doi:10.1016/j.jct.2017.07.004).

Columns and labels:
[1] = xn = mol fraction of the nth substance listed; details: 100 kPa, Liquid, x2 = 0; for viscosity: Concentric cylinders viscometry; for mass density: Vibrating tube method
[2] = 100 kPa, Liquid; for viscosity: Concentric cylinders viscometry; for mass density: Vibrating tube method

CCC(C)O (configuration not stated) [butan-2-ol] + CCC=O
[1]
Details | mass density [kg/m3] | viscosity [mPa·s]
293.15 K | 806.7 | 3.67
298.15 K | 802.7 | 3.04
303.15 K | 798.4 | 2.54
308.15 K | 794.1 | 2.13
313.15 K | 789.8 | 1.8
318.15 K | 785.2 | 1.54
323.15 K | 780.6 | 1.33

CCCC(C)O (configuration not stated) [pentan-2-ol]
[2]
Details | viscosity [mPa·s]
298.15 K | 3.32
303.15 K | 2.81
308.15 K | 2.37
313.15 K | 1.99
318.15 K | 1.66
323.15 K | 1.39

CCCC(C)O (configuration not stated) [pentan-2-ol] + CCC=O
[1]
Details | mass density [kg/m3] | viscosity [mPa·s]
293.15 K | 809.3 | 3.97
298.15 K | 805.3 | 3.32
303.15 K | 801.2 | 2.81
308.15 K | 797 | 2.37
313.15 K | 792.7 | 1.99
318.15 K | 788.4 | 1.66
323.15 K | 784 | 1.39

CC(C)O [propan-2-ol] + CCC=O
[1]
Details | mass density [kg/m3] | viscosity [mPa·s]
293.15 K | 785.4 | 2.42
298.15 K | 781.1 | 2.08
303.15 K | 776.8 | 1.8
308.15 K | 772.4 | 1.56
313.15 K | 768 | 1.36
318.15 K | 763.4 | 1.19
323.15 K | 758.8 | 1.05

CCC=O [propanal]
[2]
Details | mass density [kg/m3] | viscosity [mPa·s]
293.15 K | 802.4 | 0.34
298.15 K | 796.2 | 0.33
303.15 K | 790.3 | 0.31
308.15 K | 784.5 | 0.3
313.15 K | 779 | 0.28
318.15 K | 773.5 | 0.27
323.15 K | 768.2 | 0.25
